Assay results reported in patent EP1482971B1, “STRATEGY FOR RETROVIRAL IMMUNOTHERAPY” (priority 2002, dated 2003).
Where two headings read alike, the source gives them in different places.

Experiments:
MAIDS virus [1] = assay: Rechallenge with MAIDS virus following protective vinblastine therapy; format: in vivo, mice; settings: Vb at day 14 pi, rechallenged at 3 or 8 weeks post Vb treatment; assessed at 20 weeks
Source text: To determine if mice protected from MAIDS by the day 14 pi Vb treatment develop an immune response which would then protect them from a subsequent rechallenge with the MAIDS virus groups of mice, given the Vb therapy at day 14 pi, were rechallenged with the MAIDS virus at 3 or 8 weeks post Vb treatment. […] This is not an unexpected result as the dominant immunosuppression by the regulator population of cells would have been restored as a consequence of the immune effector response to the second (untreated) infection.

murine T cell lymphoma = settings: cited from earlier work
[2] = system: LP-BM5 murine leukemia virus (MuLV); assay: MAIDS development after a single dose of vinblastine at different times post infection (spleen weight, histology, FACS analysis); format: in vivo, C57BL/6 mice
Source text: A murine AIDS (MAIDS) pathology induced by LP-BM5 murine leukemia virus (MuLV) in susceptible mice is an effective tool to investigate mechanisms of retrovirus-induced immunodeficiency. […] Infection of a susceptible strain such as C57BL/6 mice with LP-BM5 leads to chronic splenomegaly, hypergammaglobulinaemia and development of immunodeficiency in both T and B cells. In vitro, there is a progressive impairment in the responsiveness of T-cells and B-cells to mitogenic or specific antigenic stimuli. In vivo, infected mice become increasingly susceptible to challenge with a variety of opportunistic organisms and can develop B-cell lymphoma. Deaths are first observed at 8-10 weeks post-infection (pi), and all mice die within 24 weeks (Figure 1). These alterations in immune function reflect complex changes in the phenotype and function of all components of the immune network.
The treatment with a single dose of the anti-mitotic agent vinblastine (Vb) at different times pi is able to prevent the development/progression of MAIDS. […] Clearly, the Vb treatment is remarkably therapeutic when administered at 6 hr or 14 days pi with 100% (10/10) and 74% (20/27) of mice, respectively, showing no signs of MAIDS development at 10 weeks pi (as determined by spleen weight, histology and FACS analysis). […] Additional experiments have provided results of 100% of mice having no signs of MAIDS development at least 12 months after Vb treatment 14 days pi (data not shown). Although not as pronounced as the protection seen after day 14 treatment, moderate protection from MAIDS development was still observed. […] The total protection from MAIDS development seen in mice given Vb at 6 hrs pi is not unexpected as the virus replicates in actively replicating cells which are the target of the anti-mitotic drug thus any cells infected with the virus are killed by the Vb preventing the virus from rapidly establishing an infection in the host. However, the highly protective effect observed after a single treatment with Vb at 14 days pi is quite remarkable as, by this stage, the viral infection is well established and the early disease processes are well underway. We propose that this highly therapeutic effect is due to the Vb targeting a particular subset of immune regulator cells during their expansion phase and thereby altering the immune response to the viral infection. […] This leads to long term disease free survival for many months post-infection and treatment.
Spleens from the Day 14 pi Vb treated mice as well as infected and uninfected control mice were weighed and examined histologically. The splenic architecture of all MAIDS infected mice was profoundly disorganised as previously reported (Hartley et al., 1989).

[3] = system: CD4^+ T cells and CD25^+CD4^+ T cells; assay: Direct FACS analysis of spleen cells following Vb therapy on day 14 post infection; format: in vivo, mice; settings: spleens collected 48 hours post Vb treatment
Procedure: FACS analysis of CD4^+ and CD8^+ T cells prepared from spleens of mice treated with Vb on Day 14 pi was performed (Figure 6). CD25^+CD4^+ T cells were also examined as they have recently been identified as having an important regulatory function in mouse models of autoimmune disease and tumour immunology (Takahashi et al., 1998; Shimizu et al., 1999). It is possible that these cells may play a role in the regulation of the immune response to MAIDS. Day 14 pi and uninfected control mice were given Vb therapy and the spleens collected at 48 hours post Vb treatment.

MAIDS virus [4] = assay: Adoptive transfer of CD4+CD25+/- cells into MAIDS infected day 14 Vinblastine treated mice; format: in vivo; settings: MAIDS-infected day 14 Vb-treated recipients given CD4+CD25+ or CD4+CD25- cells from uninfected donors
Source text: An adoptive transfer experiment was designed to directly test the hypothesis that CD4+CD25+ T cells are functioning as the regulator cells in the murine AIDS model. The same approach used to determine that the regulator cells are CD4+ T cells was used to test whether the CD4+CD25+ subset are the target of day 14 Vinblastine treatment. […] 2.0x10^6 cells of the regulator CD4+CD25+ phenotype were purified from single cell suspensions of donor spleens using MACS beads (Miltenyi Biotec) using two positive selection steps. The cells were then tested for purity by flow cytometry (both CD4+CD25+ and CD4+CD25- fractions were of > 90 % purity) and viability using trypan blue exclusion prior to transfer into uninfected (control) and MAIDS infected day 14 Vinblastine treated mice. CD4+CD25- cells were also transferred to allow that the regulator cells may not present in the CD25+ fraction and also to allow for the possibility that these putative regulator cells may lose CD25 expression as they expand and become activated as was reported by Gavin et al., 2002.
Mice receiving adoptive transfer of cells were either uninfected (control) or MAIDS infected and day 14 Vinblastine treated to examine whether the transfer of cells would result in disease progression. […] Disease progression was assessed by spleen weight at 10 weeks post MAIDS infection. […]

MAIDS virus [5] = assay: Spleen cell transfer into Vb-treated MAIDS infected mice; format: in vivo
Source text: The experiments illustrated in Figure 7 were designed to determine if a single dose of Vb, administered at 14 days pi, is eliminating a population of expanding CD4^+ regulator T cells and thereby releasing effector cells from down-regulation and clearing the host of the MAIDS virus.
Mice were infected with MAIDS, received day 14 pi Vb treatment and then received an adoptive transfer of ∼10^7 spleen cells from donor mice prepared as outlined in Figure 7. For each experiment [designated (I), (II) and (III)] groups consisted of 7 recipient mice and 9 donor mice. Mice in Group I received whole spleens from infected mice that had not received any Vb treatment. Mice in Group II received whole spleen cell preparations, from infected mice, that had been depleted of CD4^+ cells using a FACS cell sorter after staining with fluorochrome-labeled anti-CD4 monoclonal antibody. […] Mice in Group III received whole spleens from infected donor mice that also received Vb treatment on day 14 pi.

In the case of `CC[C@]1(O)C[C@@H]2CN(CCc3c([nH]c4ccccc34)[C@@](C(=O)OC)(c3cc4c(cc3OC)N(C)[C@H]3[C@@](O)(C(=O)OC)[C@H](OC(C)=O)[C@]5(CC)C=CCN6CC[C@]43[C@@H]65)C2)C1` [Vb, vinblastine], the “protection from viral rechallenge” value (MAIDS virus [1]) is given as “not protected from viral rechallenge”, the effect on tumour (murine T cell lymphoma; single dose at day 10 following tumour inoculation) is given as “enhancement” and the effect on tumour (murine T cell lymphoma; single dose at days 4, 6, 13 and 15 following tumour inoculation) is given as “regression”. The “mice protected from any splenomegaly at 20 weeks pi” value ([2]; Vb at day 14 pi, 4/5 mice) was 80%, the “mice having no signs of MAIDS development at least 12 months after Vb treatment” value ([2]; Vb treatment 14 days pi, additional experiments, data not shown) was 100% and the “cellular proportions (CD4^+, CD8^+ and B cells) and distributions of spleen cells by FACS analysis” value ([2]; day 14 pi Vb treated mice at 10 weeks pi, preliminary, data not shown) was “like those observed in normal uninfected mice”. For the same compound, the “splenic architecture (spleen histology)” value ([2]; day 14 pi Vb treated mice with normal spleen weights (below 0.25g), 10 weeks pi) was “indistinguishable from that of uninfected control mice”, the “mice showing no signs of MAIDS development at 10 weeks pi” value ([2]; single 6mg/kg i.p. dose given at 6 hr pi, 10/10 mice, by spleen weight, histology and FACS analysis) was 100% and the “mice with protective effect (no signs of MAIDS development at 10 weeks pi)” value ([2]; single 6mg/kg i.p. dose given at 6 days pi, 6/13 mice) was 46%. The “mice showing no signs of MAIDS development at 10 weeks pi” value ([2]; single 6mg/kg i.p. dose given at 14 days pi, 20/27 mice) was 74%, the “protection against MAIDS development” value ([2]; single 6mg/kg i.p. dose given at day 2 pi) was “no protection against MAIDS development” and the “protection against MAIDS development” value ([2]; single 6mg/kg i.p. dose given at day 7 pi) was “no protection against MAIDS development”. For the same compound, the “effect on spleen cell subsets” value ([3]; Vb at day 14 pi and in uninfected controls) was “all cell subsets are reduced”, the “cell subsets preferentially targeted in MAIDS infected mice (uninfected to infected ratios)” value ([3]; Vb at day 14 pi) was “CD4^+ T cells and CD25^+CD4^+ T cells that are preferentially targeted” and the “disease progression (spleen weight at 10 weeks post MAIDS infection) after adoptive cell transfer” value (MAIDS virus [4]) was “disease progression was readily apparent”. The “protective effect of Vb against MAIDS development after spleen cell transfer” value (shortened to “protective effect of Vb”) (MAIDS virus [5]; Group I: day 14 pi Vb, then ~10^7 whole spleen cells from MAIDS infected donors without Vb) was “completely prevented Vb from protecting mice from MAIDS development”, the “protective effect of Vb” value (MAIDS virus [5]; Group II: donor spleen cells depleted of CD4^+ cells by FACS sorting before transfer) was “the protective effect of Vb was not overcome” and the “protective effect of Vb” value (MAIDS virus [5]; Group III: spleen cells from MAIDS infected donors also given day 14 Vb) was “fully protected from MAIDS development”.
